Results published in patent publication US12303845B2, “Method for crystallization of active pharmaceutical ingredients” (Nanoform Finland Oyj, priority 2023, dated 2025).

Assay: Dissolution studies (Pion Rainbow, FaSSIF / SGF-FaSSIF)
Format: physicochemical
Details: composition of the disclosure vs bulk ezetimibe; powders resuspended in aq. 1% PVPVA; FaSSIF and SGF-FaSSIF
Experimental: The dissolution properties were measured with a Pion Rainbow R2D instrument (Pion Inc UK Ltd, Forest Row, UK). The suspensions were prepared at concentration of 5 mg/mL in 1% PVPVA suspension vehicle loaded at 40 μg/mL (ezetimibe) or 30 μg/ml (apalutamide). Fasted simulated intestinal fluid (FaSSIF) media pH 6.5 was used for dissolution studies of Ezetimibe. Dissolution studies for Apalutamide was done in biphasic mode starting in Simulated gastric media (SGF) (0.025 M HCl pH 1.6) for 15 min. Thereafter, the content of the SGF was converted to FaSSIF medium pH 6.5 by addition of 10 mL of FaSSIF concentrate media. The temperature was set to 37° C. and stirring rate to 150 rpm. API concentrations were continuously monitored with a fiber optical UV-Vis probes path length. UV-Vis spectra were collected in 30-sec intervals using the Pion Rainbow Dynamic with either 10 mm tips for Ezetimibe or 5 mm tips for Apalutamide. The API concentration was calculated based on a standard curve using 2nd derivative data transformation (stock solution 5 mg/mL in ethanol of respective API) at a range of 293-320 nm wavelength for both Ezetimibe and Apalutamide).

dissolution versus bulk material: dissolves significantly faster
SMILES: O=C1[C@H](CC[C@H](O)c2ccc(F)cc2)[C@@H](c2ccc(O)cc2)N1c1ccc(F)cc1 [Eze, ezetimibe]
